# Molecular target: T1, Gamma secretase (Homo sapiens, UniProt P49768)
# T1 construct: endogenous in cells; host or cells: 293 cells (T-REx, clone pTRE.15), salt-washed membrane preparation; only the substrate SPC99-Lon is transfected
# Test: Gamma secretase activity assay (membranes of C99-expressing 293 cells, Aβ 40/Aβ 42 ECL immunoassay)
# Type: biochemical
# Settings: membranes incubated at 37 C for 1 h; Aβ 40 and Aβ 42 measured by ECL immunoassay; read-out: IC50 (concentration of compound producing 50% inhibition of enzyme activity)
# Method: Gamma secretase activity was determined as described by Zhang et a. (Biochemistry, 40 (16), 5049-5055, 2001). Activity is expressed either as a percent inhibition or as the concentration of compound producing 50% inhibition of enzyme activity.
# Reagents. Antibodies W02, G2-10, and G2-11 were obtained from Dr. Konrad Beyreuther (University of Heidelberg, Heidelberg, Germany). W02 recognizes residues 5-8 of A peptide, while G2-10 and G2-11 recognize the specific C-terminal structure of A 40 and A 42, respectively. Biotin-4G8 was purchased from Senetec (St. Louis, Mo.). All tissue culture reagents used in this work were from Life Technologies, Inc., unless otherwise specified. Pepstatin A was purchased from Roche Molecular Biochemicals; DFK167 was from Enzyme Systems Products (Livermore, Calif.).
# cDNA Constructs, Tissue Culture, and Cell Line Construction. The construct SPC99-Lon, which contains the first 18 residues and the C-terminal 99 amino acids of APP carrying the London mutation, has been described (Zhang, L., Song, L., and Parker, E. (1999) J. Biol. Chem. 274, 8966-8972). Upon insertion into the membrane, the 17 amino acid signal peptide is processed, leaving an additional leucine at the N-terminus of A. SPC99-Ion was cloned into the pcDNA4/TO vector (Invitrogen) and transfected into 293 cells stably transfected with pcDNA6/TR, which is provided in the T-REx system (Invitrogen). The transfected cells were selected in Dulbecco's modified Eagle's media (DMEM) supplemented with 10% fetal bovine serum, 100 units/mL penicillin, 100 µg/mL streptomycin, 250 µg/mL zeocin, and 5 µg/mL blasticidin (Invitrogen). Colonies were screened for A production by inducing C99 expression with […] tetracycline for 16-20 h and analyzing conditioned media with a sandwich immunoassay (see below). One of the clones, designated as pTRE.15, was used in these studies.
# Membrane Preparation. C99 expression in cells was induced with […] tetracycline for 20 h. The cells were pretreated with […] 12-myristate 13-acetate (PMA) and […] brefeldin A (BFA) for 5-6 h at 37 C before harvesting. The cells were washed 3 times with cold phosphate-buffered saline (PBS) and harvested in buffer A containing 20 mM Hepes (pH 7.5), 250 mM sucrose, 50 mM KCl, 2 mM EDTA, 2 mM EGTA, and Complete protease inhibitor tablets (Roche Molecular Biochemicals). The cell pellets were flash-frozen in liquid nitrogen and stored at −70 C. before use.
# To make membranes, the cells were resuspended in buffer A and lysed in a nitrogen bomb at 600 psi. The cell lysate was centrifuged at 1500 g for 10 min to remove nuclei and large cell debris. The supernatant was centrifuged at 100000 g for 1 h. The membrane pellet was resuspended in buffer A plus 0.5 M NaCl, and the membranes were collected by centrifugation at 200000 g for 1 h. The salt-washed membrane pellet was washed again in buffer A and centrifuged at 100000 g for 1 h. The final membrane pellet was resuspended in a small volume of buffer A using a Teflon-glass homogenizer. The protein concentration was determined, and membrane aliquots were flash-frozen in liquid nitrogen and stored at −70 C.
# -Secretase Reaction and A Analysis. To measure -secretase activity, membranes were incubated at 37 C for 1 h in 50 L of buffer containing 20 mM Hepes (pH 7.0) and 2 mM EDTA. At the end of the incubation, Aβ 40 and Aβ 42 were measured using an electrochemiluminescence (ECL)-based immunoassay. Aβ 40 was identified with antibody pairs TAG-G2-10 and biotin-W02, while A 42 was identified with TAG-G2-11 and biotin-4G8. The ECL signal was measured using an ECL-M8 instrument (IGEN International, Inc.) according to the manufacturer's instructions. The data presented were the means of the duplicate or triplicate measurements in each experiment. The characteristics of -secretase activity described were confirmed using more than five independent membrane preparations.
row,Compound,IC50
1,COC(=O)c1ccc(CN(C2CCCN(C(=O)OC(C)(C)C)C2)S(=O)(=O)c2ccc(C(F)(F)F)cc2)cc1 (centres unmarked) [Example 14],28 to 345 nM
2,COC(=O)c1ccc(CN(C2CCCN(C(=O)OC(C)(C)C)C2)S(=O)(=O)c2ccc(OC(F)(F)F)cc2)cc1 (centres unmarked) [Example 16],28 to 345 nM
3,COC(=O)c1ccc(CN(C2CCCN(C(=O)OC(C)(C)C)C2)S(=O)(=O)c2ccc([N+](=O)[O-])cc2)cc1 (centres unmarked) [Example 17],28 to 345 nM
4,COC(=O)c1ccc(CN(C2CCCN(C(=O)OC(C)(C)C)C2)S(=O)(=O)c2ccc(C#N)cc2)cc1 (centres unmarked) [Example 18],28 to 345 nM
5,COC(=O)c1ccc(CN(C2CCCN(C(=O)OC(C)(C)C)C2)S(=O)(=O)c2ccc(-c3ccccc3)cc2)cc1 (centres unmarked) [Example 20],28 to 345 nM
6,COC(=O)c1ccc(CN(C2CCCN(C(=O)Cc3cccnc3)C2)S(=O)(=O)c2ccc(Cl)cc2)cc1 (centres unmarked) [Example 56],28 to 345 nM
7,COC(=O)c1ccc(CN(C2CCCN(C(=O)Cc3ccccc3)C2)S(=O)(=O)c2ccc(Cl)cc2)cc1 (centres unmarked) [Example 62],28 to 345 nM
8,COC(=O)c1ccc(CN(C2CCCN(C(=O)C(C)C)C2)S(=O)(=O)c2ccc(OC)cc2)cc1 (centres unmarked) [Example 68],28 to 345 nM
9,COC(=O)c1ccc(CN(C2CCCN(C(=O)Cc3cc(F)cc(F)c3)C2)S(=O)(=O)c2ccc(C(F)(F)F)cc2)cc1 (centres unmarked) [Example 79],28 to 345 nM
10,CC1COCC(C)N1C(=O)N1CCCC(N(c2cc(F)ccc2F)S(=O)(=O)c2ccc(Cl)cc2)C1 (centres unmarked) [Example 161],28 to 345 nM
11,CC1CCCCN1C(=O)N1CCCC(N(c2cc(F)ccc2F)S(=O)(=O)c2ccc(Cl)cc2)C1 (centres unmarked) [Example 162],28 to 345 nM
12,CN1CCN(C(=O)N2CCCC(N(c3cc(F)ccc3F)S(=O)(=O)c3ccc(Cl)cc3)C2)CC1 (centres unmarked) [Example 180],28 to 345 nM
13,O=C(N1CCN(CCOCCO)CC1)N1CCCC(N(c2cc(F)ccc2F)S(=O)(=O)c2ccc(Cl)cc2)C1 (centres unmarked) [Example 181],28 to 345 nM
14,O=C(N1CCN(CCO)CC1)N1CCCC(N(c2cc(F)ccc2F)S(=O)(=O)c2ccc(Cl)cc2)C1 (centres unmarked) [Example 182],28 to 345 nM
15,O=C(N1CCCC(N(c2cc(F)ccc2F)S(=O)(=O)c2ccc(Cl)cc2)C1)N1CCCCC1CO (centres unmarked) [Example 192],28 to 345 nM
16,CN(C)CC1CCCCN1C(=O)N1CCC[C@H](N(c2cc(F)ccc2F)S(=O)(=O)c2ccc(Cl)cc2)C1 (some centres unmarked) [Example 213],28 to 345 nM
17,C[C@@H]1CN(C(=O)OC(C)(C)C)CCN1C(=O)N1CCC[C@H](N(c2cc(F)ccc2F)S(=O)(=O)c2ccc(Cl)cc2)C1 [Example 214],28 to 345 nM

# Reference: patent US7122675B2, “Gamma secretase inhibitors” (Schering Corporation, priority 2001, dated 2006)
